ChEMBL document CHEMBL1132016, “Catalytic activity of carboxypeptidase B and of carboxypeptidase Y with anisylazoformyl substrates” (Bioorg Med Chem Lett, 1999)

Columns and labels:
[1] = Ratio of kinetic constants (kcat/km) for the inhibition against carboxypeptidase B
[2] = molecular target: T1, Carboxypeptidase B (Sus scrofa) (UniProt P09955); assay: Substrate kinetic value (kcat) against porcine carboxypeptidase B
T1 sequence (whole entry): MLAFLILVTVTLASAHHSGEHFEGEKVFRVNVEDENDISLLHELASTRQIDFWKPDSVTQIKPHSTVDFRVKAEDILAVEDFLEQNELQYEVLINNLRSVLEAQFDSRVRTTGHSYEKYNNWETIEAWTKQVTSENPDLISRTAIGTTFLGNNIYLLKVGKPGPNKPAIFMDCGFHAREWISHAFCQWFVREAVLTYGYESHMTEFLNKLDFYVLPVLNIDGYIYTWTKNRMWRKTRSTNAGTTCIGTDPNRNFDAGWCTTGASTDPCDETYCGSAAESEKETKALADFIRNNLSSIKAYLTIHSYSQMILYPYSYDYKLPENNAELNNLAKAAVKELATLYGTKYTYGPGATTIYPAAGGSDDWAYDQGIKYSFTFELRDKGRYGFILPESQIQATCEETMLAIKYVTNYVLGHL

[3] = substrate: C[C@@H](NC(=O)/C=C/c1ccco1)C(=O)N[C@@H](CCCCN)C(=O)O; assay: (§1) Affinity to porcine carboxypeptidase B at pH 7.9
[4] = substrate: COc1ccc(/N=N/C(=O)NC(CCCCN)C(=O)O)cc1; assay: as §1

Ratio [1] [M⁻¹ s⁻¹] | k cat [2] [s⁻¹] | Molecule | Km [3] [µM] | Km [4] [µM]
95000 | 76 | COc1ccc(/N=N/C(=O)NC(CCCCN)C(=O)O)cc1 (stereo not given) |  | 
36000 |  | C[C@@H](NC(=O)/C=C/c1ccco1)C(=O)N[C@@H](CCCCN)C(=O)O |  | 
 |  | Carboxypeptidase B (Sus scrofa), P09955 (protein) MLAFLILVTVTLASAHHSGEHFEGEKVFRVNVEDENDISLLHELASTRQIDFWKPDSVTQIKPHSTVDFRVKAEDILAVEDFLEQNELQYEVLINNLRSVLEAQFDSRVRTTGHSYEKYNNWETIEAWTKQVTSENPDLISRTAIGTTFLGNNIYLLKVGKPGPNKPAIFMDCGFHAREWISHAFCQWFVREAVLTYGYESHMTEFLNKLDFYVLPVLNIDGYIYTWTKNRMWRKTRSTNAGTTCIGTDPNRNFDAGWCTTGASTDPCDETYCGSAAESEKETKALADFIRNNLSSIKAYLTIHSYSQMILYPYSYDYKLPENNAELNNLAKAAVKELATLYGTKYTYGPGATTIYPAAGGSDDWAYDQGIKYSFTFELRDKGRYGFILPESQIQATCEETMLAIKYVTNYVLGHL | 1160 | 810
